Experimental data published in patent US10774098B2, “Nahlsgen optical resolution method” (KYOTO UNIVERSITY, priority 2016, dated 2020).

Tested on: normal human epidermal cells
Assay: glutathione production promotion activity (glutathione reductase recycling assay)
Format: cell-based
Conditions: for GSH (pmol/μg protein) Mean: cultivation for 24 hours
Excerpt: The equal amount mixture obtained in Example 1 was used as a sample and evaluated for glutathione production promotion activity by the following procedure.
Specifically, normal human epidermal cells were inoculated to a 96-well microplate housing a normal human epidermic keratinocyte growth medium (trade name HuMedia KG2, supplied by Kurabo Industries Ltd.) in a cell density of 2.0×10^4 cells per 96 wells.
Twenty-four (24) hours after the inoculation, the medium was exchanged with a normal human epidermic keratinocyte growth medium (trade name HuMedia KB2, supplied by Kurabo Industries Ltd.) containing the sample in a predetermined concentration, and the cultivation was continued.
As a positive control, a cultivation was performed by a procedure similar to above, except for using, instead of the sample, Nahlsgen (DL-2-amino-4-[(RSp)-(3-carboxymethylphenoxy)(methoxy)phosphoryl]butanoic acid, trade name GGsTop, supplied by Wako Pure Chemical Industries, Ltd.).
As a blank, a cultivation was performed a procedure similar to above, except for not using the sample.
After cultivation for 24 hours, the cells were disrupted by ultrasonication using a phosphoric acid buffer containing 100-μM phenylmethylsulfonyl fluoride, and the total amount of glutathione was quantitatively measured by the after-mentioned glutathione reductase recycling assay.
Specifically, the disrupted cell suspension was combined with reduced nicotinamide adenine dinucleotide phosphate and glutathione reductase, followed by reaction at 37° C. for 10 minutes.
Next, 0.1 M phosphate buffer solution (containing 0.5 M EDTA, pH 7.5) containing 10 mM 5,5′-dithiobis(2-nitrobenzoic acid) was added, the absorbance (at 450 nm) was measured immediately after addition, and after 30 minute-incubation, and the difference between two measurements ((absorbance after 30 minute-incubation)−(absorbance immediately after addition)) was defined as an index for glutathione synthesis quantity.
The total amount of glutathione in the disrupted cell suspension was calculated on the basis of a calibration curve plotted using oxidized glutathione. The protein content in the disrupted cell suspension was quantitatively determined using the Pierce Microplate BCA Protein Assay Kit (Thermo SCIENTIFIC). The glutathione synthesis quantity was evaluated for differences from the untreated specimen (blank) and from the positive control by a significant difference test using Student's t-test.

Compound | GSH (pmol/μg protein) Mean (Conc. 2.00 μmol/L) | GSH (pmol/μg protein) Mean (Conc. 10.00 μmol/L) | GSH (pmol/μg protein) Mean (Conc. 50.00 μmol/L) | GSH (pmol/μg protein) Mean (Conc. 250.00 μmol/L) | glutathione (GSH) amount compared with the blank (untreated cells) (result in words, summary of Table 1)
equal-amount mixture of D-2-amino-4-[(Rp)-(3-carboxymethylphenoxy)(methoxy)phosphoryl]butanoic acid monohydrate and L-2-amino-4-[(Sp)-(3-carboxymethylphenoxy)(methoxy)phosphoryl]butanoic acid monohydrate [Example 1] | 44.2 pmol/μg protein | 48.1 pmol/μg protein | 38.0 pmol/μg protein | 41.5 pmol/μg protein | significantly increased glutathione (GSH) amount as well as or better than the cells treated with Nahlsgen
COP(=O)(CC[C@H](N)C(=O)O)Oc1cccc(CC(=O)O)c1 (mixture of isomers) [Nahlsgen, DL-2-amino-4-[(RSp)-(3-carboxymethylphenoxy)(methoxy)phosphoryl]butanoic acid] | – | 44.7 pmol/μg protein | – | – | –
